Source: PubChem BioAssay AID1337 (NMMLSC, 2008)

Target: Ras-related protein Rab-2A (Canis lupus familiaris) (UniProt P61105)
Assay: Rab2 wildtype GTP-binding inhibitors, dose response, biochemical, GST-Rab2 beads, Bodipy-FL-GTP, flow cytometry, multiplex (AID 1337)
Settings: Bead-bound GST-Rab2 wt

| EC50 [µM] | Compound |
| --- | --- |
| 1.99 | COC(=O)c1c(N2C(=O)[C@H]3[C@@H](C2=O)[C@]2(C(=O)Nc4c(C)cc(C)cc42)N2CCC[C@@H]32)sc(C)c1C |
| 26.3 | OC(CNCCC1C=Nc2ccccc21)Cn1c2ccc(Cl)cc2c2cc(Cl)ccc21 (stereo not drawn) |
| 4.02 | O=[N+]([O-])c1cc2oc3c(c2c(C=NCc2ccccc2)c1O)CCCC3 |
